Experimental data from patent publication US5763433A, “Pharmaceutical compositions containing 3-beta-hydroxylated 6,7-substituted steroid derivatives, and use thereof” (Conservatoire National des Arts et Metiers, priority 1992, dated 1998).

Experiments:
[1] = molecular target: T1, nuclear binding of tritiated dexamethazone (glucocorticoid receptors) (Mus musculus, UniProt P06537); assay: Displacement of the nuclear binding of tritiated dexamethazone in isolated liver, brain, thymus and spleen cells; design: species or system C57BL/6 mouse
T1 construct: The liver, brain, spleen and thymus are excised and the cells of each organ are recovered; from tissue; host or cells: isolated cells of liver, brain, spleen and thymus of metyrapone-treated C57BL/6 mice
T1 sequence (P06537 1-792): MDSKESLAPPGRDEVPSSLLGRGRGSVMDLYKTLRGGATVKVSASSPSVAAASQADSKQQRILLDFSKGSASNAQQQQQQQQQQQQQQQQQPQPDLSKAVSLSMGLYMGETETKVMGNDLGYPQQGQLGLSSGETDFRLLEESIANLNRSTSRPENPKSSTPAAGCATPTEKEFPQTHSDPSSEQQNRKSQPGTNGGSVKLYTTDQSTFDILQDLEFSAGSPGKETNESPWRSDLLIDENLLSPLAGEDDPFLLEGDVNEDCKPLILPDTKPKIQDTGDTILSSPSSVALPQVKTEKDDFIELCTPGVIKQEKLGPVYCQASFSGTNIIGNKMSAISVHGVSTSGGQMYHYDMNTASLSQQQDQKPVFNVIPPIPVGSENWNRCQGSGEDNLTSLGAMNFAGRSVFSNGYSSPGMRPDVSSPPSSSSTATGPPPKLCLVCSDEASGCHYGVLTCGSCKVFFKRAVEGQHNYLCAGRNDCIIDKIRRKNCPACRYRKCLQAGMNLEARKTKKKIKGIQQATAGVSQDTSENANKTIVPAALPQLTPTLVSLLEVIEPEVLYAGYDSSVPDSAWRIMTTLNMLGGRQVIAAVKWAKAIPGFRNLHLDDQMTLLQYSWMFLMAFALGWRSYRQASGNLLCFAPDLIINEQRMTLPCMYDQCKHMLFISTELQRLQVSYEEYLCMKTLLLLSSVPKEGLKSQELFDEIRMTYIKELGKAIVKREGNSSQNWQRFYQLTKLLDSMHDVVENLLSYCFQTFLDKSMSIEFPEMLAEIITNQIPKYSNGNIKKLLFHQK
Procedure: The isolated hepatocytes are incubated for 1 hour at room temperature with increasing concentrations (2-80 nM) of ^3 H-dexamethazone (DEX*). […] The hepatocyte nuclei are then isolated and purified and the radioactivity corresponding to the DEX* still bound is measured and expressed in cpm/10 ug of DNA. The area under the curve DEX* corresponds to zero displacement of the radioactivity. The area under the curve DEX*/DEX which corresponds to the displacement of radioactivity by the same molecule is taken arbitrarily as 100. The areas under the curve obtained with the other steroids makes it possible to calculate by interpolation between the areas zero and 100 their displacement coefficients for the nuclear binding of DEX*.
The mice are anesthetized with ether and bled, then perfused intracardially with physiological serum containing collagenase B (0.03 g/100 ml) for 10 minutes. […] The quantities of cells obtained are estimated on the base of the measurement of the DNA contained in the preparations.
The nuclei are recovered and their radioactive content measured as described by the authors cited above.
The area under the curve of tritiated dexamethazone alone is measured and taken as zero. […] The displacement coefficients found for each of the other steroids are calculated by interpolation on this scale, each result being the mean of a triplicate determination.

[2] = tested on: cytosolic or nuclear receptors specific for 7-alpha-hydroxy-DHEA; assay: Search for cytosolic or nuclear receptors specific for 7-alpha-hydroxy-DHEA (studies not reported); assay type: binding; conditions: studies not reported here
anti-lysozyme IgG = assay: Immunoenzymatic measurement of anti-lysozyme IgG in serum of mice immunized against lysozyme; assay type: in vivo, C57BL/6 mice; conditions: for Optical densities +/- SD, anti-lysozyme IgG, 1/180 serial dilution: serum 1/180; for Optical densities +/- SD, anti-lysozyme IgG, 1/180 serial dilution / Optical densities +/- SD, anti-lysozyme IgG, 1/540 serial dilution / Optical densities +/- SD, anti-lysozyme IgG, first serial dilution: s.c., mean of 5 mice; for Optical densities +/- SD, anti-lysozyme IgG, 1/180 serial dilution / Optical densities +/- SD, anti-lysozyme IgG, 1/540 serial dilution: doses and timing as E1; for Optical densities +/- SD, anti-lysozyme IgG, 1/540 serial dilution: serum 1/540; for Optical densities +/- SD, anti-lysozyme IgG, first serial dilution: serum dilution not given, PREG 0,5 g/kg, DHEA 1,0 g/kg, ADIOL 125 mg/kg 1 hour before lysozyme, 7-hydroxy-PREG and 7-hydroxy-DHEA 6,25 mg/kg, 7β-hydroxy-DHEA 50,0 mg/kg, 7- and 7β-hydroxy-ADIOL 25,0 mg/kg with lysozyme; for Effect on serum anti-lysozyme IgG (in words): steroid administered s.c. simultaneously with lysozyme; for Effect on serum concentrations of anti-lysozyme IgG (in words): steroid administered s.c. at least one hour prior to the injection of lysozyme
Procedure: The immunity effector effect was tested by subcutaneous injection concomitantly with that of an antigen and the 7-alpha- or 7-beta-hydroxylated derivative into C57BL/6 mice according to a standard immunization protocol (Methods in Enzymology (1980), vol. 70).
The effect of the compound as cellular immunity effector is measured by the quantity of circulating IgG directed against the antigen 21 days after the injection and after a booster injection 14 days layer.
Thirty five groups of five 6-weeks old C57BL/6 mice are given a subcutaneous injection of 200 ug of hen egg white lysozyme on days one and fourteen of the immunization protocol. Solutions of DHEA (Sigma D-4500) in dimethyl sulfoxide (DMSO) are injected in the same manner at variable times before the first injection of lysozyme. Amounts ranging from 0.25 and 2 g/kg are used. Ten other groups of 5 mice are given a subcutaneous injection of 6.25 to 50 mg/kg of 7-alpha-hydroxy-DHEA or 7-beta-hydroxy-DHEA dissolved in DMSO at the same time as the first lysozyme injection. Two groups receive only DMSO with lysozyme (controls). The blanks correspond to one group of 5 mice and are not given an injection.
Three weeks after the first injections the animals, then aged 9 weeks, are decapitated. The blood of each animal is collected and the presence of anti-lysozyme G immunoglobulins (IgG) is measured in serial dilutions of the sera by an immunoenzymatic titration using goat anti-mouse (Fc) IgG immunoglobulin labelled with peroxidase.
A group of 5 mice is given the subcutaneous injection of 125 mg/kg of 5-androstene-3-beta, 17-beta-diol (ADIOL) one hour prior to the first injection of lysozyme, and two groups of 5 mice are treated with 25 mg/kg of 7-alpha-hydroxy-ADIOL or 7-beta-hydroxy-ADIOL at the time of the first lysozyme injection.
DHEA or PREG or ADIOL is injected subcutaneously 1 hour before the first lysozyme injection. The 7-hydroxylated derivatives are administered simultaneously with the lysozyme injection. The immunoenzymatic measurement of the anti-lysozyme IgGs in the serial dilutions of the sera of each animal makes use of goat anti-mouse (Fc) IgG immunoglobulin, labelled with peroxidase in 96-well plates treated with lysozyme. The mean value of the optical densities measured in each group of 5 mice is calculated as well as the standard deviation (SD).

antiviral response = conditions: 20 mg/kg to 320 mg/kg s.c. or 0.4% by weight of the diet; cited from earlier work
AIDS = conditions: 400 to 2500 mg/day; cited from earlier work
[3] = cited from earlier work
[4] = tested on: human viruses Edwards CVB4 or HSV2; conditions: s.c., of the order of 1 g/kg 4 hours prior to viral infection; also oral 0.4% in the diet for 16 weeks; cited from earlier work

C[C@]12CC[C@H](O)CC1=C[C@@H](O)[C@@H]1[C@@H]2CC[C@]2(C)C(=O)CC[C@@H]12 [7-hydroxy-DHEA, 3-beta, 7-alpha-dihydroxy-androst-5-en-17-one]
Displacement of tritiated dexamethazone from nuclear binding / anti-glucocorticoid action (in words) ([1]; 100-fold excess of steroid): more effective that the 7-beta epimer | Displacement coefficient for nuclear binding of tritiated dexamethazone, Brain ([1]; brain cells, 100-fold excess of steroid, no competitor = zero, unlabelled dexamethazone = 100, mean of triplicate): 49 | Displacement coefficient for nuclear binding of tritiated dexamethazone, Liver ([1]; liver cells, 100-fold excess of steroid over 2-80 nM 3H-dexamethazone, no competitor = zero, unlabelled dexamethazone = 100, mean of triplicate, 60 min): 95 | Displacement coefficient for nuclear binding of tritiated dexamethazone, Spleen ([1]; spleen cells, 100-fold excess of steroid, no competitor = zero, unlabelled dexamethazone = 100, mean of triplicate): 91 | Displacement coefficient for nuclear binding of tritiated dexamethazone, Thymus ([1]; thymus cells, 100-fold excess of steroid, no competitor = zero, unlabelled dexamethazone = 100, mean of triplicate): 85 | Existence of specific cytosolic or nuclear receptors [2]: do not exist | Optical densities +/- SD, anti-lysozyme IgG, 1/180 serial dilution (anti-lysozyme IgG): 0,74 ± 0,21 | Optical densities +/- SD, anti-lysozyme IgG, 1/540 serial dilution (anti-lysozyme IgG): 0,43 ± 0,12 | Optical densities +/- SD, anti-lysozyme IgG, first serial dilution (anti-lysozyme IgG): 1,21 ± 0,37 | Effect on serum anti-lysozyme IgG (in words) (anti-lysozyme IgG; listed as 7-alpha-OH-DHEA): particularly marked effect of the low doses | Effect on serum anti-lysozyme IgG (in words) (anti-lysozyme IgG; listed as 7-alpha-hydroxy-DHEA): much more active than its 7-beta epimer

C[C@]12CC[C@H]3[C@@H](CC=C4C[C@@H](O)CC[C@@]43C)[C@@H]1CC[C@@H]2O [ADIOL, 5-androstene-3-beta, 17-beta-diol, reference compound]
Antiviral response (antiviral response): enhanced antiviral response | Optical densities +/- SD, anti-lysozyme IgG, 1/180 serial dilution (anti-lysozyme IgG): 0,37 ± 0,06 | Optical densities +/- SD, anti-lysozyme IgG, 1/540 serial dilution (anti-lysozyme IgG): 0,22 ± 0,03 | Optical densities +/- SD, anti-lysozyme IgG, first serial dilution (anti-lysozyme IgG): 0,26 ± 0,09 | Effect on serum concentrations of anti-lysozyme IgG (in words) (anti-lysozyme IgG): increase the serum concentrations of anti-lysozyme IgG

C[C@]12CC[C@H](O)CC1=CC[C@@H]1[C@@H]2CC[C@]2(C)C(=O)CC[C@@H]12 [DHEA, 3-beta-hydroxy-5-androsten-17-one, reference compound]
Effect on patients suffering from AIDS (AIDS): positive effect | Solubility in aqueous solutions [3]: low solubility | Survival of infected mice [4]: enables the survival of mice infected by the human viruses Edwards CVB4 or HSV2 to be increased | Optical densities +/- SD, anti-lysozyme IgG, 1/180 serial dilution (anti-lysozyme IgG): 0,26 ± 0,04 | Optical densities +/- SD, anti-lysozyme IgG, 1/540 serial dilution (anti-lysozyme IgG): 0,14 ± 0,02 | Optical densities +/- SD, anti-lysozyme IgG, first serial dilution (anti-lysozyme IgG): 0,40 ± 0,06 | Effect on serum concentrations of anti-lysozyme IgG (in words) (anti-lysozyme IgG): increase the serum concentrations of anti-lysozyme IgG
